BindingDB's records for doi:10.7270/Q2QC01XF (Nmmlsc, 2009)

Target: Ras-related protein Rab-2A (Canis lupus familiaris, UniProt P61105)
Experiment: Rab2 wildtype GTP-binding inhibitors, SAR follow-up, biochemical, additional analogs, bead-based flow cytometry, multiplex (AID 2046)

Chain of Ras-related protein Rab-2A (P61105 whole entry): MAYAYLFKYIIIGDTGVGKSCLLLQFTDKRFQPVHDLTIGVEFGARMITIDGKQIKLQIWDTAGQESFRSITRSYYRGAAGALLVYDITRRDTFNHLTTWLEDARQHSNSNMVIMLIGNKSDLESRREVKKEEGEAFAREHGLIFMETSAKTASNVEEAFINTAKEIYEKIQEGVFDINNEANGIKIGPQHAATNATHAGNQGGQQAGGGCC

Ki [µM]	SMILES
4.15	O=C1N=c2ccc(Br)cc2=C1c1[nH]c2ccccc2c1NO [5-bromanyl-3-[3-(oxidanylamino)-1H-indol-2-yl]indol-2-one]
4.19	O=C1N=c2c(Br)cccc2=C1c1[nH]c2ccccc2c1NO [7-bromanyl-3-[3-(oxidanylamino)-1H-indol-2-yl]indol-2-one]
